Measured values as given in ChEMBL document CHEMBL1201862, “PubChem BioAssay data set” (2004).
Activity calls are given as the source filed them.

What was measured:
[1] = luciferase reporter signal suppression in cells – H4 neuroglioma cells, luminescence, dose response (AID 1990); assay type: functional, cell-based
[2] = Luminescence Cell-Based Dose Response HTS to Identify Inhibitors of 5'UTR Stem-Loop Driven Prion Protein mRNA Translation in H4 Neuroglioblastoma Cells. [Related pubchem assays: 1827 (Project Summary), 1813 (Primary HTS)]; assay type: functional
[3] = alpha-synuclein stem-loop luciferase translation blockers – H4 neuroglioma cells, luminescence, confirmation (AID 1988); assay type: functional, cell-based
Estrogen receptor = target: T1, Estrogen receptor (Homo sapiens, UniProt P03372);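 also: potency for inhibiting coactivator peptide recruitment to the receptor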
T1 sequence (P03372 whole entry): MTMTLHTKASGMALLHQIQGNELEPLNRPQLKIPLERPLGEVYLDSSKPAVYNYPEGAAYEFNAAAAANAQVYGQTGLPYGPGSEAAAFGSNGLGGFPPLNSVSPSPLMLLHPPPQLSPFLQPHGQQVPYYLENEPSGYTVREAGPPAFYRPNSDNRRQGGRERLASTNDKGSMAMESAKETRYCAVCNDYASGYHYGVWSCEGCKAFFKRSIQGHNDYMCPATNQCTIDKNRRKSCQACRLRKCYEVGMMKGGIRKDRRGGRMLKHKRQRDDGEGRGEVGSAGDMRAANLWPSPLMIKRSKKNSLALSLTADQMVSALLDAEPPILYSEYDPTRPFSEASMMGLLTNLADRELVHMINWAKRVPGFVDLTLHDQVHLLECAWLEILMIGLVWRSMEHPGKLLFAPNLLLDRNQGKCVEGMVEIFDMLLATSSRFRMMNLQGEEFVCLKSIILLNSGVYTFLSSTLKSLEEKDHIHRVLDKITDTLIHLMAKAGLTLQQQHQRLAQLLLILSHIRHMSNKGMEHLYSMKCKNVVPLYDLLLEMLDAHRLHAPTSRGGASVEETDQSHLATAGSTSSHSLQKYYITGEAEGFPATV

Estrogen receptor beta [4] = target: T2, Estrogen receptor beta (Homo sapiens, UniProt Q92731);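 also: recombinant ER-beta bound to coactivator SRC1 peptide in presence of estradiol agonist; inhibitors block coactivator peptide binding and lower the FRET signal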
Estrogen receptor beta [5] = target: T2, Estrogen receptor beta; assay: blockers of SRC-3 recruitment to ERβ – biochemical, ELISA, streptavidin-HRP readout, orthogonal assay, confirmation (AID 1060)
[6] = target: Voltage-dependent T-type calcium channel subunit alpha-1H (Homo sapiens, UniProt O95180); assay type: functional;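 also: channel activity triggered by adding a high calcium stimulation buffer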
[7] = target: Peroxisome proliferator-activated receptor gamma/Nuclear receptor coactivator 1 (Homo sapiens, UniProt P37231); assay: (§1) TR-FRET dose response biochemical High Throughput Screening assay for agonists of the steroid receptor coactivator 1 (SRC-1) recruitment by the peroxisome proliferator-activated receptor gamma (PPAR gamma): non-selective agonists. [Related pubchem assays (depositor defined):AID1300, AID1808, AID504735, AID631]; assay type: protein assay
[8] = target: Peroxisome proliferator-activated receptor gamma/Nuclear receptor coactivator 3 (Homo sapiens, UniProt P37231); assay: as §1, with “3 (SRC-3)” for “1 (SRC-1)”, “assays: 1301 (Confirmation screen.), 1048 (Primary screen.)]” for “assays (depositor defined):AID1300, AID1808, AID504735, AID631]”; assay type: functional
[9] = target: Peroxisome proliferator-activated receptor gamma/Nuclear receptor coactivator 2 (Homo sapiens, UniProt P37231); assay: TR-FRET dose response biochemical High Throughput Screening assay for agonists of the steroid receptor coactivator 2 (SRC-2) recruitment by the peroxisome proliferator-activated receptor gamma (PPAR gamma): non-selective agonists. [Related pubchem assays: 1297, 1032 ]; assay type: functional
[10] = target: T3, E3 ubiquitin-protein ligase XIAP (Homo sapiens, UniProt P98170); assay: Counter Screen using XIAP-Bir3 for Chemical Antagonists of Bir1/2 domains of IAP-family anti-apoptotic proteins. [Related pubchem assays (depositor defined):AID1018, AID1449, AID1514, AID1638, AID1749, AID1750, AID488957, AID488963]
[11] = target: T3, E3 ubiquitin-protein ligase XIAP; assay: small molecules displacing peptide from XIAP – biochemical, IAP family, fluorescence polarization (AID 1018); assay type: functional
[12] = system: Streptococcus sp. 'group A'; assay: Streptococcus pyogenes SK(-)GAS viability under kanamycin – luminescence, BacTiterGlo, confirmation, counter-screen for streptokinase expression inhibitor project, dose response (AID 1900); assay type: functional, organism-based
Streptococcus = assay: GAS UMAA2166 growth inhibition – luminescence, BacTiterGlo, counter-screen for streptokinase expression inhibitor project, dose response (AID 1915); assay type: functional, organism-based;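 also: potency for reduction of bacterial viability or growth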
[13] = THP-1 cell cytotoxicity, dose response, cytotoxicity control for non-replicating M. tuberculosis project (AID 489025); assay type: functional
[14] = HepG2 cell cytotoxicity, dose response, cytotoxicity control for non-replicating M. tuberculosis project (AID 489018); assay type: functional; details: Mycobacterium tuberculosis
[15] = Vero E6 cell cytotoxicity, dose response, cytotoxicity control for non-replicating M. tuberculosis project, secondary assay (AID 492998); assay type: functional, VeroE6; details: Vero C1008
cells = assay type: functional
Bcl-2-like protein 10 = target: T4, Bcl-2-like protein 10 (Homo sapiens, UniProt Q9HD36); assay: Bcl-B/TR3 peptide binding disruption – biochemical, fluorescence polarization, FITC-TR3 peptide, selectivity assay for Bfl-1 inhibitor project, primary screen (AID 748);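 also: fluorescence polarization from a fluorescein-labelled TR3 peptide binding purified Bcl-B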
T4 sequence (Q9HD36 whole entry): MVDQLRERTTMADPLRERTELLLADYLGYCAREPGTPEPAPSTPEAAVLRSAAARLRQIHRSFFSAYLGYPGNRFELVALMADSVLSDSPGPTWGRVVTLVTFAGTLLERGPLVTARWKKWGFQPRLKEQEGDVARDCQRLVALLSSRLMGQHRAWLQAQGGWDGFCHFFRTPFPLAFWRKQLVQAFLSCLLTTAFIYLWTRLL

Trypsin = Trypsin (Sus scrofa, UniProt P00761); assay: trypsin protease activity blockade – biochemical, quenched peptide fluorescence, cherry-pick, selectivity assay for Rce1 protease inhibitor project, dose response (AID 488789)
CAAX prenyl protease 2 = target: T5, CAAX prenyl protease 2 (Homo sapiens, UniProt Q9Y256); assay: inhibition of Ras-converting CAAX protease Rce1 – biochemical, yeast membranes, quenched-peptide fluorescence, cherry-pick, dose response (AID 588849)
T5 sequence (Q9Y256 whole entry): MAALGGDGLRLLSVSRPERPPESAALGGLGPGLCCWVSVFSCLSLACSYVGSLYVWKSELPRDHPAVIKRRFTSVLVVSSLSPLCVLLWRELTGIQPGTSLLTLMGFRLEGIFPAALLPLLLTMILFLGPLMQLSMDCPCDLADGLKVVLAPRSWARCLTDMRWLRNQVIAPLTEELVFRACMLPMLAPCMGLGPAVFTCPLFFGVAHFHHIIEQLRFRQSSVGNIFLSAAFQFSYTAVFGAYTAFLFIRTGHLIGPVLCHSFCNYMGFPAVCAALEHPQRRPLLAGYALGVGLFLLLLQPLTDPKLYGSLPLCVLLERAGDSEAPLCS

Troponin, cardiac muscle = Troponin, cardiac muscle (Homo sapiens, UniProt P19429+P45379+P63316); assay: Fluorescence-based biochemical high throughput dose response assay for activators of the calcium sensitivity of cardiac Regulated Thin Filaments (RTF). [Related pubchem assays (depositor defined):AID493008, AID493018, AID504382, AID504383]; assay type: protein-complex assay

T2 sequence (Q92731 whole entry): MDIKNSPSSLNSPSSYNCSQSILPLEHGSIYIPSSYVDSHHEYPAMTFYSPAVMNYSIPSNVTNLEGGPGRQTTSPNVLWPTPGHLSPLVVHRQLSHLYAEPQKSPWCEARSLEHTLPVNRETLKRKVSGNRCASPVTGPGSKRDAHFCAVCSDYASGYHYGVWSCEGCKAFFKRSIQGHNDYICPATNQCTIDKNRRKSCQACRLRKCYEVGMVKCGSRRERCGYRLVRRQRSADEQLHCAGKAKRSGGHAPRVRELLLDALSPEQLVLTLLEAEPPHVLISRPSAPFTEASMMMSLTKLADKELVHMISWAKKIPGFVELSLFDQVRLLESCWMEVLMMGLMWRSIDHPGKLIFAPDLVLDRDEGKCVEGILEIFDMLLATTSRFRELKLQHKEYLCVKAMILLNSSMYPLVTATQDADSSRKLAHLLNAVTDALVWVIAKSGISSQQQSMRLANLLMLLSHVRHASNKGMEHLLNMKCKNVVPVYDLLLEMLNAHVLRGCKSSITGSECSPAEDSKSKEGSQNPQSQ
Sequence of Voltage-dependent T-type calcium channel subunit alpha-1H (O95180 whole entry): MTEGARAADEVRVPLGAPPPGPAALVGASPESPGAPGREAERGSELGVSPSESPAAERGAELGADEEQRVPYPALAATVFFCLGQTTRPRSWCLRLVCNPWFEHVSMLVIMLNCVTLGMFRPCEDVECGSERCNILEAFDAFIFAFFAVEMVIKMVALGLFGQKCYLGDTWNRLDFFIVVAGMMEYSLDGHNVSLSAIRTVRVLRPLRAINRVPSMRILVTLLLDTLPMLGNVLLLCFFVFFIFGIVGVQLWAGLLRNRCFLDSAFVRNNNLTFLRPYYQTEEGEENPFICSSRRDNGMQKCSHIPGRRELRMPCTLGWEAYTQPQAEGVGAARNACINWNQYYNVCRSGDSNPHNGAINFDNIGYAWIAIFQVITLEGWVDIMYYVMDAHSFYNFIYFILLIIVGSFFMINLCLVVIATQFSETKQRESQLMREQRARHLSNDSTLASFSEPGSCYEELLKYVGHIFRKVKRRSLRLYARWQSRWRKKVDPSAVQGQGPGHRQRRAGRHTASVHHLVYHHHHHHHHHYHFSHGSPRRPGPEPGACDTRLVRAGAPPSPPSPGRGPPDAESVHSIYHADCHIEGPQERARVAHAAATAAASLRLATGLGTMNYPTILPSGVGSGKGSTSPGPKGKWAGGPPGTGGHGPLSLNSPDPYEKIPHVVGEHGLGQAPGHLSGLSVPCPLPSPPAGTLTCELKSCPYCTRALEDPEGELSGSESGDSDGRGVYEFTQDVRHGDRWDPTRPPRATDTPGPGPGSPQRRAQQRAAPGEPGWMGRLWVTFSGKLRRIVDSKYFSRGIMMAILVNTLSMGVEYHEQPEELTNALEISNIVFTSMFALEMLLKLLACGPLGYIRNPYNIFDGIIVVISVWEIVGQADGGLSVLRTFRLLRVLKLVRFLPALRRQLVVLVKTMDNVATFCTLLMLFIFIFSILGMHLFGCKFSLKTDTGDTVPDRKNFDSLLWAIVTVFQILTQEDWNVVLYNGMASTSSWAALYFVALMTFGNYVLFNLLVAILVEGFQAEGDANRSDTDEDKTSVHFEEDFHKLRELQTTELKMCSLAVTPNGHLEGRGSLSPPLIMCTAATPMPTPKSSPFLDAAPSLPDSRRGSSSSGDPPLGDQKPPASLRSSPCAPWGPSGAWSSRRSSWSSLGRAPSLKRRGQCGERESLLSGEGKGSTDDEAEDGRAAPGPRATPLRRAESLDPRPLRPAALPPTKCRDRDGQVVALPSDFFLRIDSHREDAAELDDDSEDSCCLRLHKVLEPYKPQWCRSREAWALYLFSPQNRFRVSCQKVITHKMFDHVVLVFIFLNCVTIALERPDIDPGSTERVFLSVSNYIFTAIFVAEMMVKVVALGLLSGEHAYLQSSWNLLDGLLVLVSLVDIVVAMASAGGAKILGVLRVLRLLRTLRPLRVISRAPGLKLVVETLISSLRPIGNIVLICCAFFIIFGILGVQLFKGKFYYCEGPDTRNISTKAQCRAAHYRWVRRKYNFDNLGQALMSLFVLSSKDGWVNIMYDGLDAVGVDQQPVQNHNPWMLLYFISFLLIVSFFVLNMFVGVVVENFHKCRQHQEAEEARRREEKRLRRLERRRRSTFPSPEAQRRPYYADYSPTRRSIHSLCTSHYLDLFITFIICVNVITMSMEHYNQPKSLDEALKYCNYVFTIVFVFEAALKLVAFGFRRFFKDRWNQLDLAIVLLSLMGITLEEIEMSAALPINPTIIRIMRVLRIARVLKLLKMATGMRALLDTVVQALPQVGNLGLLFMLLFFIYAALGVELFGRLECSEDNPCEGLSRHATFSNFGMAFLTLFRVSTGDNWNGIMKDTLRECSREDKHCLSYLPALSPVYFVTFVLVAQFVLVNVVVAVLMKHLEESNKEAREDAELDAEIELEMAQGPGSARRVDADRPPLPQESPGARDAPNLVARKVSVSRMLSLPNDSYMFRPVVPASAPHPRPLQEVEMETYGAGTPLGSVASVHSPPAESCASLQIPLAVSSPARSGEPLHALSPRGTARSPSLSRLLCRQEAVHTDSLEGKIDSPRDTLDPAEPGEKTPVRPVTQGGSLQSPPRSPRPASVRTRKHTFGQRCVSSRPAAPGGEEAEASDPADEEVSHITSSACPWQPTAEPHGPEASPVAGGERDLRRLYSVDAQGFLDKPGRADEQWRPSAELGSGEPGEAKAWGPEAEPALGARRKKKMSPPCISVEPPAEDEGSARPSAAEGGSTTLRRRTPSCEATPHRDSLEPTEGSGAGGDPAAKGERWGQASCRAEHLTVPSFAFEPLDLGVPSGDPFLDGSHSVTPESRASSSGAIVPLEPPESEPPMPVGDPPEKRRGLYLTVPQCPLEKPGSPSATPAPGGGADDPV
T3 sequence (P98170 whole entry): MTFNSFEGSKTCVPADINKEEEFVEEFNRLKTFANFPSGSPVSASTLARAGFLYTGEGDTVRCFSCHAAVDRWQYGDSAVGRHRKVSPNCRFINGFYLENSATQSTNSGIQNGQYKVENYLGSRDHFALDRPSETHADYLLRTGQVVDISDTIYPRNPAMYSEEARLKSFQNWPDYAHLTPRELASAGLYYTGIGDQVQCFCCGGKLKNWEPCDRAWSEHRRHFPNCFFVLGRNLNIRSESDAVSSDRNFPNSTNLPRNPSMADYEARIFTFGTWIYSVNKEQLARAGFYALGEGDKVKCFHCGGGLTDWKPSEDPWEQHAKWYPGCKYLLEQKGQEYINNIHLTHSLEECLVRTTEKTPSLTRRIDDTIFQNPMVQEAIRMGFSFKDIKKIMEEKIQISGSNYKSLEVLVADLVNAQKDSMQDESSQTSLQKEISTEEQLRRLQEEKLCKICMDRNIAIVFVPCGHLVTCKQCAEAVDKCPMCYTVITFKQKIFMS
Sequence of Trypsin (P00761 whole entry): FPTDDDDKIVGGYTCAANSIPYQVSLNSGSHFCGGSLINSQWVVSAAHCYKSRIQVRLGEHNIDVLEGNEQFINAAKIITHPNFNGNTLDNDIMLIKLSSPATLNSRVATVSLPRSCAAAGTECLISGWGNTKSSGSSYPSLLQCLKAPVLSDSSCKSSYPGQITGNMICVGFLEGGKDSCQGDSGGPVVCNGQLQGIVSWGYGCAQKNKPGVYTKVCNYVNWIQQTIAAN

COc1ccc(Cn2c(=O)[nH]c3cc(C(=O)NCc4ccc5c(c4)OCO5)ccc3c2=O)cc1
EC50 [1]: > 120 µM (not active)
EC50 [2]: > 120 µM (not active)
EC50 [3]: 11 µM (active)
IC50 (Estrogen receptor): 18.9 µM (active)

CSC1=N/C(=C\c2ccc(Br)o2)C(=O)S1
IC50 (Estrogen receptor): 22.1 µM (active)
IC50 (Estrogen receptor beta [4]): 8.58 µM (active)
IC50 (Estrogen receptor beta [5]): < 0.023 µM (not active)

Cc1ccc(-c2noc(CSc3nnc(Cc4cccs4)n3-c3ccccc3)n2)cc1
EC50 [6]: 3.56 µM (active)

CCn1c(=O)cc(SCC(=O)N2CCN(c3ccccc3F)CC2)c2ccccc21
EC50 [7]: > 79.4 µM (inactive)
EC50 [8]: > 79.4 µM (not active)
EC50 [9]: > 79.4 µM (not active)

Cc1cc(=O)oc2cc(OCc3ccc(C(=O)N4CCN(c5ccc([N+](=O)[O-])cc5)CC4)cc3)ccc12
IC50 [10]: > 100 µM (inactive)
IC50 [11]: > 100 µM (not active)

CCOc1ccc(-c2nnc(NC(=O)c3ccc(OCC(C)C)c(OC)c3)o2)cc1
EC50 [12]: 0.354 µM (active)
EC50 (Streptococcus): 1.76 µM (active)
EC50 [6]: 11.3 µM (active)
CC50 [13]: 13.8 µM (active)
CC50 [14]: > 20 µM (active)
CC50 [15]: 10.1 µM (active)
IC50 (cells): 36.7 µM (active)

COC(=O)c1sc(-c2ccccc2)cc1NC(=O)C1CC1
EC50 [7]: > 79.4 µM (inactive)
EC50 [8]: > 79.4 µM (not active)
EC50 [9]: > 79.4 µM (not active)

Cc1ccc(S(=O)(=O)NC(=O)c2cc(C)n(CCCn3ccnc3)c2C)cc1
IC50 (Bcl-2-like protein 10): 74 µM (inactive)

CC1CCN(c2oc(-c3ccc(F)cc3)nc2C#N)CC1
AC50 (Trypsin): 3.18 µM (active)
AC50 (CAAX prenyl protease 2): 9.46 µM (active)

CC(C)CN(C(=O)COC(=O)c1cc2c(s1)CCC2)C1CCS(=O)(=O)C1 (centres undefined)
IC50 (Bcl-2-like protein 10): 26.6 µM (active)
IC50 (Estrogen receptor): 2.95 µM (active)
IC50 (Estrogen receptor beta [4]): 1.91 µM (active)
IC50 (Estrogen receptor beta [5]): 1.94 µM (not active)

Cc1ccc(NC(=O)CN2C(=O)S/C(=C\C(=O)Nc3ccc(Cl)cc3)C2=O)cc1
IC50 [10]: > 100 µM (inactive)
IC50 [11]: > 100 µM (not active)

CCCN(CCC)S(=O)(=O)c1ccc(NS(=O)(=O)c2ccc(F)cc2)cc1
EC50 [6]: 3.07 µM (active)

CCN(CC(=O)Nc1ccccc1C(F)(F)F)C(=O)c1ccc(-n2nc(C)c(CCC(=O)OC)c2C)cc1
EC50 (Troponin, cardiac muscle): > 71.5 µM (inactive)
